The values that follow come from patent publication US9145397B2, “Process for the preparation of 1-(2-methyl-4-(2,3,4,5-tetrahydro-1-benzazepin-1-ylcarbonyl) benzylcarbamoyl)-L-proline-N, N-dimethylamide” (Vantia Limited, priority 2011, dated 2015).

Data set [1] in a line: Gravimetric Vapour Sorption Analysis (GVA). In kind it is physicochemical. The note with it: amorphous solid prepared as in PCT/GB2001/000023. An excerpt: 1-(2-methyl-4-(2,3,4,5-tetrahydro-1-benzazepin-1-ylcarbonyl)benzylcarbamoyl)-L-proline-N,N-dimethylamide was first described in international patent application WO 2001/049682 (PCT/GB2001/000023). […] Moreover, scanning electron micrographs (SEM) of this amorphous form show it to consist of irregular, predominantly large (>5 μm in diameter) aggregates. These properties of the amorphous form render it less suitable for use in a manufacturing process.

The target of the next data set is T1, vasopressin V2 receptor (Rattus norvegicus, UniProt Q00788).
T1 construct: from tissue; host or cells: whole animal, in vivo (endogenous receptor)
The data set can be described thus: in vivo assay described in PCT/GB2001/000023 (inhibition of urine output). The following applies: at 1 hour; dosed at 1 mg/Kg. The text has this:
The ability of the crystalline form of the invention to agonise the vasopressin V2 receptor may be determined using the in vivo assay described in PCT/GB2001/000023.

Molecules are shown by their SMILES.

T1 sequence (Q00788 whole entry): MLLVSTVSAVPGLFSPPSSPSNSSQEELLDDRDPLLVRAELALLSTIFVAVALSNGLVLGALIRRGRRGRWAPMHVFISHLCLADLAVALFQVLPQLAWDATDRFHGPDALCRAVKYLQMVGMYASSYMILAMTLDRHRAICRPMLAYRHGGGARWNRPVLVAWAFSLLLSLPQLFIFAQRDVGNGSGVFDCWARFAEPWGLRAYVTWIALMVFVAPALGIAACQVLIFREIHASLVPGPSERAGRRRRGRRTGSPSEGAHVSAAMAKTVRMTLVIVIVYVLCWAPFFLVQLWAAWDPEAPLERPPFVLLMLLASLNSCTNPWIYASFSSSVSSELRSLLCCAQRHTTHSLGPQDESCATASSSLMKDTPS

In the case of `Cc1cc(C(=O)N2CCCCc3ccccc32)ccc1CNC(=O)N1CCC[C@H]1C(=O)N(C)C` [amorphous form, 1-(2-methyl-4-(2,3,4,5-tetrahydro-1-benzazepin-1-ylcarbonyl)benzylcarbamoyl)-L-proline-N,N-dimethylamide], in data set [1], the “hygroscopicity by Gravimetric Vapour Sorption Analysis (GVA)” value is “hygroscopic”.
As for `Cc1cc(C(=O)N2CCCCc3ccccc32)ccc1CNC(=O)N1CCC[C@H]1C(=O)N(C)C` [1-(2-methyl-4-(2,3,4,5-tetrahydro-1-benzazepin-1-ylcarbonyl)benzylcarbamoyl)-L-proline-N,N-dimethylamide], the “inhibition of urine output” value on vasopressin V2 receptor is listed as 82%.
